Entries after “also recorded” stand apart in the source; their conditions may differ.
Experiments:
HT-29 cells [1] = test: Cell growth by MTT assay in HT-29 cells; format: cell-based, human
Procedure: Cell growth was measured by the cell growth determination kit MTT from Sigma (St. Louis, Mo.). The MTT assay measures the cell proliferation rate and reduction in cell viability. HT-29 or RKO cells (1×10^4/well) were plated in 96-well plates and treated with growth factors (all 100 ng/ml), SAMe (0.5 to 5 mM), MTA (0.5 to 1 mM), alone or in combination for 16 hrs in serum-free medium. To determine the effect of MAT2A RNAi on mitogen-induced changes in MTT, cells were first treated with RNAi for 48 hrs followed by mitogen treatment for another 24 hrs.

human GSS promoter = test: Human GSS promoter activity in HT-29 cells; format: cell-based; conditions: SAMe or MTA treatment as for MAT2A promoter
Source text: The human MAT2A promoter construct[…] and GSS promoter construct −1686/−46-LUC were previously described (33, 34, 50), and subcloned in the sense orientation upstream of the luciferase coding sequence of the pGL-3 enhancer vector (Promega). Both promoter constructs contain maximal promoter activity. Specificity of SAMe and MTA on promoter activity was examined by transfecting HT-29 cells with the GSS promoter construct and treating cells with SAMe or MTA as above.

[2] = test system: ornithine decarboxylase (ODC); test: ODC expression by real-time PCR in HT-29 cells; format: cell-based, human; conditions: 6 hrs
[3] = Stability of SAMe and MTA in culture medium without cells and in water; format: physicochemical; conditions: culture medium at 37° C., linear regression
Procedure: FIG. 12. […] SAMe (A) and MTA (B) levels were measured in culture medium without cells with starting SAMe concentrations ranging from 1 to 5 mM and MTA concentration at 1 mM.
To test whether the mitogens-induce increase in. MAT2A is to provide increased SAMe necessary for polyamine synthesis in growing cells, SAMe and polyamine levels were measured following treatment of HT-29 cells with mitogens.

cFLIPL = test: Colonic cFLIPL mRNA in mice fed SAMe or MTA; format: in vivo; conditions: oral, 6 days
Procedure: FIG. 30. Effects of oral SAMe and MTA on colonic mRNA levels of MAT2A, MAT2 β, and […]. Mice were fed SAMe (150 to 450 mg/kg/d) or MTA (75 or 150 mg/kg/d) in drinking water for 6 days. Colonic mucosa was scrapped off and gene expression measured by real-time PCR.

MAT III = MAT III (Rattus norvegicus, UniProt P13444); conditions: cited from earlier work
MAT2A = MAT2A expression in NCM460 cells; format: cell-based, human; conditions: 5 mM SAMe or 1 mM MTA, 6 hrs
Procedure: Total RNA was isolated by the EZgeno total RNA isolation kit (Genemega, San Giego, Calif.), and subjected to reverse transcription (RT) by using M-MLV Reverse transcriptase (Invitrogen). 2 μl of RT product was subjected to quantitative real-time PCR analysis. The primers and TaqMan probes for MAT2A, MAT2β and Universal PCR Master Mix were purchased from ABI (Foster City, Calif.). Hypoxanthine phosphoribosyl-transferase 1 (HPRT1) and ubiquitin C (UBC) were used as housekeeping genes (48). The thermal profile consisted of 1 cycle at 95° C. for 15 minutes followed by 40 cycles at 95° C. for 15 seconds and at 60° C. for 1 minute. The expression of MAT2A and MAT2β was checked by normalizing the Ct of MAT2A and MAT2β to that of the control housekeeping gene (HPRT1 or UBC) (49). The delta Ct obtained was used to find the relative expression of MAT genes according to the formula: Relative expression=2·^ΔCt, where ΔCt=ΔCt of MAT genes in colon cancer or treated cells—ΔCt of MAT genes in normal colon or control cells.
NCM460 cell line was originally established in 1996 as the first non-malignant colonic epithelial cell line derived from the transverse colon (43). When first developed, cells formed both monolayer and in suspension, express villin and cytokeratin staining (43). […] The NCM460 cells in monolayer have features of transverse colon crypt cells (69). […]

RKO cells = test: TRAIL-induced apoptosis in RKO cells (Annexin V with FACS); format: cell-based, human; conditions: 24 hours
Procedure: FIG. 28. MTA sensitizes RKO cells to TRAIL-induced apoptosis. RKO cells were treated with 1 mM MTA, […] 5-FU, or 10 ng/ml TRAIL alone or in combination for 24 hours. Apoptosis was determined by Annexin V with FACS.

HT-29 cells [4] = test: Polyamine levels in HT-29 cells; format: cell-based, human; conditions: 6 hrs
Procedure: (§1) HT-29 and RKO cells were obtained from the Cell Culture Core of the USC Liver Disease Research Center and grown according to instructions provided by the American Type Culture Collection (ATCC, Rockville, Md.). Prior to treatment with growth factors, SAMe or MTA, medium was changed to 0.1% FBS overnight.
(§2) Cellular SAMe and MTA levels were measured (51) and polyamine levels were determined (52).

MAT I = MAT I (Rattus norvegicus, UniProt P13444); conditions: cited from earlier work
[5] = Tolerability of oral SAMe and MTA in mice; format: in vivo; conditions: oral in drinking water, 6 days; weight gain and water consumption similar to controls
Source text: SAMe and MTA were made fresh daily. The amount of water intake, body weight, and animal behavior were closely monitored. After 6 days, animals were sacrificed, intestine was cut open along the longitudinal axis, and mucosa was stripped from the intestine (46). Mucosa was weighed and a portion processed for SAMe measurement as described below, the rest snap frozen for subsequent RNA extraction.

HT-29 cells [6] = test: Cellular SAMe and MTA levels in HT-29 cells; format: cell-based, human
Procedure: as §1, §2

MAT I, sequence (P13444 whole entry): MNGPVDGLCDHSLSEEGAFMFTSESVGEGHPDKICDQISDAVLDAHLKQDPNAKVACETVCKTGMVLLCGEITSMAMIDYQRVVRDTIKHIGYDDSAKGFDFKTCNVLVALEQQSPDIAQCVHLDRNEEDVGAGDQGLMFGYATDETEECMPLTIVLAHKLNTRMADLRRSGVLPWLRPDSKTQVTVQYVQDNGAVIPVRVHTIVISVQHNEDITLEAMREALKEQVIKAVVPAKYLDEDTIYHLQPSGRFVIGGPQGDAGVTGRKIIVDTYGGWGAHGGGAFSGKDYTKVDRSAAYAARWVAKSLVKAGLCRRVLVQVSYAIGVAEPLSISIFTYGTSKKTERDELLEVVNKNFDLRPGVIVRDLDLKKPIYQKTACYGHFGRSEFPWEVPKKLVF
MAT III, sequence (P13444 whole entry): as above

## C[S+](CC[C@H](N)C(=O)O)C[C@H]1O[C@@H](n2cnc3c(N)ncnc32)[C@H](O)[C@@H]1O (stereo partly shown) [SAMe, S-adenosylmethionine]
HT-29 cells [1]; SAMe 5 mM, 24 hr
  growth: 71 % of control
HT-29 cells [1]; SAMe 0.5 to 5 mM, MTA 0.5 to 1 mM, 16 hrs
  growth, agent alone: no effect on growth
HT-29 cells [1]; SAMe 0.5 to 5 mM, MTA 0.5 to 1 mM, 16 hrs, with growth factors
  mitogenic action of leptin, EGF and IGF-1: blocked the mitogenic action
Human GSS promoter
  human GSS promoter activity: no influence on the human GSS promoter activity
[2]; SAMe 2 mM
  ODC expression: 1.1 ± 0.07 fold of control
[2]; SAMe 5 mM
  ODC expression: 0.8 ± 0.04 fold of control
[3]
  rate of conversion from SAMe to MTA: 0.013 mM per hour per mM SAMe
cFLIPL
  cFLIPL expression: inhibited cFLIPL expression
MAT III; MAT III
  Inhibition by SAMe: No
MAT III; at 500 μM SAMe
  stimulation of MAT III: up to 8 fold
MAT2A
  reduction of MAT2A expression: 40%
RKO cells
  TRAIL-induced apoptosis: sensitized RKO cells to TRAIL-induced apoptosis
HT-29 cells [4]; SAMe 2 mM
  Putrescine: 0.06 ± 0.01 nmol/mg protein
  Spermidine: 2.37 ± 0.02 nmol/mg protein
  Spermine: 12.39 ± 2.86 nmol/mg protein
HT-29 cells [4]; SAMe 5 mM
  Putrescine: 0.01 ± 0.01 nmol/mg protein
  Spermidine: 1.90 ± 0.18 nmol/mg protein
  Spermine: 13.21 ± 2.58 nmol/mg protein
MAT I; MAT I
  Inhibition by SAMe: No
MAT I; read-out: IC50, inhibition of MAT I
  IC50: 400 µM
[5]
  tolerability / toxicity: well tolerated; also recorded: no apparent toxicity
HT-29 cells [6]; 5 mM SAMe for 16 hrs
  increase of intracellular MTA levels after SAMe treatment: 19 fold
  intracellular MTA levels after SAMe treatment: 1,906%
HT-29 cells [6]; 6 hrs, SAMe 2 mM
  MTA level: 0.192 ± 0.036 nmol/mg protein
  SAMe level: 1.44 ± 0.13 nmol/mg protein
HT-29 cells [6]; 6 hrs, SAMe 5 mM
  MTA level: 0.354 ± 0.096 nmol/mg protein
  SAMe level: 2.19 ± 0.21 nmol/mg protein
HT-29 cells [6]; 16 hrs, SAMe 2 mM
  MTA level: 0.261 ± 0.035 nmol/mg protein
  SAMe level: 1.28 ± 0.01 nmol/mg protein
HT-29 cells [6]; 16 hrs, SAMe 5 mM
  MTA level: 0.934 ± 0.105 nmol/mg protein
  SAMe level: 1.83 ± 0.01 nmol/mg protein
